These results are taken from ChEMBL document CHEMBL3045858, “Weed control and sesame (Sesamum indicum L.) response to preplant incorporated herbicides and method of incorporation” (Crop Prot, 2007).

Each structure is given as a SMILES string.

The subject of data set [1] is Sesamum indicum. Put plainly: Phytotoxicity against Sesamum indicum (sesame) plant assessed as stunt in growth at 1.68 kg/ha applied using mixing wheel cultivator (reference value: 0%). The class given is organism-based. The conditions noted are these: in vivo, other.
Data set [2] has as its system Sesamum indicum. Put plainly: Phytotoxicity against Sesamum indicum (sesame) plant assessed as sesame stand at 0.84 kg/ha applied using mixing wheel cultivator relative to control. The format is organism-based. The conditions noted are these: in vivo, other.
Data set [3] has as its system Amaranthus tuberculatus. The data set is described as follows: Herbicidal activity against Amaranthus tuberculatus at 0.84 kg/ha applied using mixing wheel cultivator. The class given is functional.
The test system of data set [4] is Amaranthus tuberculatus. The data set is described as follows: Herbicidal activity against Amaranthus tuberculatus at 1.68 kg/ha applied using mixing wheel cultivator. The class given is functional.
The test system of data set [5] is Sesamum indicum. The data set is described as follows: Phytotoxicity against Sesamum indicum (sesame) plant assessed as sesame stand at 0.42 kg/ha applied using mixing wheel cultivator relative to control. As to conditions: in vivo, other. The format is organism-based.
Data set [6] has as its system Sesamum indicum. The data set is described as follows: Phytotoxicity against Sesamum indicum (sesame) plant assessed as stunt in growth at 0.42 kg/ha applied using mixing wheel cultivator (reference value: 0%). As to conditions: in vivo, other. The format is organism-based.
In data set [7] the test system is Urochloa platyphylla. The data set is described as follows: Herbicidal activity against Urochloa platyphylla at 0.42 kg/ha applied using mixing wheel cultivator. The class given is functional.
Data set [8] has as its system Urochloa platyphylla. The data set is described as follows: Herbicidal activity against Urochloa platyphylla at 1.68 kg/ha applied using mixing wheel cultivator. The format is functional.
Data set [9] deals with Sesamum indicum. The data set is described as follows: Phytotoxicity against Sesamum indicum (sesame) plant assessed as yield at 0.42 kg/ha applied using mixing wheel cultivator (reference value: 333 kg/ha). The conditions noted are these: in vivo, other. The format is organism-based.
For data set [10], the system named is Sesamum indicum. Put plainly: Phytotoxicity against Sesamum indicum (sesame) plant assessed as yield at 0.84 kg/ha applied using mixing wheel cultivator (reference value: 333 kg/ha). The format is organism-based. The conditions noted are these: in vivo, other.
For data set [11], the system named is Sesamum indicum. The data set is described as follows: Phytotoxicity against Sesamum indicum (sesame) plant assessed as yield at 1.68 kg/ha applied using mixing wheel cultivator (reference value: 333 kg/ha). The format is organism-based. The conditions noted are these: in vivo, other.
Data set [12] has as its system Amaranthus tuberculatus. Put plainly: Herbicidal activity against Amaranthus tuberculatus at 0.42 kg/ha applied using mixing wheel cultivator. The format is functional.
Data set [13] deals with Urochloa platyphylla. The data set is described as follows: Herbicidal activity against Urochloa platyphylla at 0.84 kg/ha applied using mixing wheel cultivator. The class given is functional.
Data set [14] deals with Sesamum indicum. The data set is described as follows: Phytotoxicity against Sesamum indicum (sesame) plant assessed as stunt in growth at 0.84 kg/ha applied using mixing wheel cultivator (reference value: 0%). The format is organism-based. As to conditions: in vivo, other.
In data set [15] the test system is Sesamum indicum. Put plainly: Phytotoxicity against Sesamum indicum (sesame) plant assessed as sesame stand at 1.68 kg/ha applied using mixing wheel cultivator relative to control. The format is organism-based. The conditions noted are these: in vivo, other.
Data set [16] concerns Amaranthus tuberculatus. The data set is described as follows: Herbicidal activity against Amaranthus tuberculatus at 0.56 kg/ha formulated as prowl EC applied using mixing wheel cultivator. The class given is functional.
Data set [17] deals with Urochloa platyphylla. The data set is described as follows: Herbicidal activity against Urochloa platyphylla at 1.12 kg/ha formulated as prowl EC applied using mixing wheel cultivator. The class given is functional.
The subject of data set [18] is Urochloa platyphylla. Put plainly: Herbicidal activity against Urochloa platyphylla at 0.84 kg/ha formulated as prowl H2O applied using mixing wheel cultivator. The class given is functional.
In data set [19] the test system is Sesamum indicum. The data set is described as follows: Phytotoxicity against Sesamum indicum (sesame) plant assessed as stunt in growth at 1.4 kg/ha formulated as prowl H2O applied using mixing wheel cultivator (reference value: 0%). The format is organism-based. The conditions noted are these: in vivo, other.
In data set [20] the test system is Sesamum indicum. Put plainly: Phytotoxicity against Sesamum indicum (sesame) plant assessed as sesame stand at 0.84 kg/ha formulated as prowl H2O applied using mixing wheel cultivator relative to control. The class given is organism-based. The conditions noted are these: in vivo, other.
Data set [21] concerns Amaranthus tuberculatus. Put plainly: Herbicidal activity against Amaranthus tuberculatus at 1.4 kg/ha formulated as prowl H2O applied using mixing wheel cultivator. The format is functional.
Data set [22] concerns Sesamum indicum. Put plainly: Phytotoxicity against Sesamum indicum (sesame) plant assessed as stunt in growth at 0.84 kg/ha formulated as prowl H2O applied using mixing wheel cultivator (reference value: 0%). The conditions noted are these: in vivo, other. The class given is organism-based.
Data set [23] concerns Sesamum indicum. Put plainly: Phytotoxicity against Sesamum indicum (sesame) plant assessed as stunt in growth at 1.12 kg/ha formulated as prowl EC applied using mixing wheel cultivator (reference value: 0%). The format is organism-based. As to conditions: in vivo, other.
For data set [24], the system named is Sesamum indicum. Put plainly: Phytotoxicity against Sesamum indicum (sesame) plant assessed as stunt in growth at 1.12 kg/ha formulated as prowl H2O applied using mixing wheel cultivator (reference value: 0%). The class given is organism-based. As to conditions: in vivo, other.
The test system of data set [25] is Amaranthus tuberculatus. The data set is described as follows: Herbicidal activity against Amaranthus tuberculatus at 1.12 kg/ha formulated as prowl EC applied using mixing wheel cultivator. The class given is functional.
For data set [26], the system named is Urochloa platyphylla. The data set is described as follows: Herbicidal activity against Urochloa platyphylla at 1.12 kg/ha formulated as prowl H2O applied using mixing wheel cultivator. The format is functional.
Data set [27] has as its system Urochloa platyphylla. The data set is described as follows: Herbicidal activity against Urochloa platyphylla at 0.56 kg/ha formulated as prowl EC applied using mixing wheel cultivator. The class given is functional.
In data set [28] the test system is Sesamum indicum. Put plainly: Phytotoxicity against Sesamum indicum (sesame) plant assessed as yield at 1.4 kg/ha formulated as prowl H2O applied using mixing wheel cultivator (reference value: 333 kg/ha). The format is organism-based. As to conditions: in vivo, other.
The test system of data set [29] is Urochloa platyphylla. The data set is described as follows: Herbicidal activity against Urochloa platyphylla at 1.4 kg/ha formulated as prowl H2O applied using mixing wheel cultivator. The class given is functional.
Data set [30] has as its system Urochloa platyphylla. Put plainly: Herbicidal activity against Urochloa platyphylla at 2.24 kg/ha formulated as prowl EC applied using mixing wheel cultivator. The class given is functional.
For data set [31], the system named is Amaranthus tuberculatus. The data set is described as follows: Herbicidal activity against Amaranthus tuberculatus at 1.12 kg/ha formulated as prowl H2O applied using mixing wheel cultivator. The format is functional.
For data set [32], the system named is Amaranthus tuberculatus. Put plainly: Herbicidal activity against Amaranthus tuberculatus at 2.24 kg/ha formulated as prowl EC applied using mixing wheel cultivator. The class given is functional.
Data set [33] concerns Sesamum indicum. Put plainly: Phytotoxicity against Sesamum indicum (sesame) plant assessed as stunt in growth at 2.24 kg/ha formulated as prowl EC applied using mixing wheel cultivator (reference value: 0%). The format is organism-based. The conditions noted are these: in vivo, other.
Data set [34] has as its system Sesamum indicum. Put plainly: Phytotoxicity against Sesamum indicum (sesame) plant assessed as yield at 1.12 kg/ha formulated as prowl H2O applied using mixing wheel cultivator (reference value: 333 kg/ha). The class given is organism-based. The conditions noted are these: in vivo, other.
Data set [35] deals with Sesamum indicum. Put plainly: Phytotoxicity against Sesamum indicum (sesame) plant assessed as yield at 1.12 kg/ha formulated as prowl EC applied using mixing wheel cultivator (reference value: 333 kg/ha). The class given is organism-based. As to conditions: in vivo, other.
The subject of data set [36] is Sesamum indicum. The data set is described as follows: Phytotoxicity against Sesamum indicum (sesame) plant assessed as yield at 0.84 kg/ha formulated as prowl H2O applied using mixing wheel cultivator (reference value: 333 kg/ha). The conditions noted are these: in vivo, other. The class given is organism-based.
The subject of data set [37] is Sesamum indicum. Put plainly: Phytotoxicity against Sesamum indicum (sesame) plant assessed as sesame stand at 1.12 kg/ha formulated as prowl H2O applied using mixing wheel cultivator relative to control. The format is organism-based. As to conditions: in vivo, other.
The subject of data set [38] is Sesamum indicum. Put plainly: Phytotoxicity against Sesamum indicum (sesame) plant assessed as stunt in growth at 0.56 kg/ha formulated as prowl EC applied using mixing wheel cultivator (reference value: 0%). The format is organism-based. The conditions noted are these: in vivo, other.
Data set [39] deals with Sesamum indicum. The data set is described as follows: Phytotoxicity against Sesamum indicum (sesame) plant assessed as yield at 0.56 kg/ha formulated as prowl EC applied using mixing wheel cultivator (reference value: 333 kg/ha). The conditions noted are these: in vivo, other. The class given is organism-based.
Data set [40] deals with Sesamum indicum. The data set is described as follows: Phytotoxicity against Sesamum indicum (sesame) plant assessed as sesame stand at 2.24 kg/ha formulated as prowl EC applied using mixing wheel cultivator relative to control. The class given is organism-based. The conditions noted are these: in vivo.
Data set [41] deals with Sesamum indicum. The data set is described as follows: Phytotoxicity against Sesamum indicum (sesame) plant assessed as yield at 2.24 kg/ha formulated as prowl EC applied using mixing wheel cultivator (reference value: 333 kg/ha). The format is organism-based. As to conditions: in vivo, other.
In data set [42] the test system is Amaranthus tuberculatus. Put plainly: Herbicidal activity against Amaranthus tuberculatus at 0.84 kg/ha formulated as prowl H2O applied using mixing wheel cultivator. The class given is functional.
The test system of data set [43] is Sesamum indicum. Put plainly: Phytotoxicity against Sesamum indicum (sesame) plant assessed as sesame stand at 0.56 kg/ha formulated as prowl EC applied using mixing wheel cultivator relative to control. The class given is organism-based. As to conditions: in vivo, other.
The test system of data set [44] is Sesamum indicum. The data set is described as follows: Phytotoxicity against Sesamum indicum (sesame) plant assessed as Sesame stand at 1.4 kg/ha formulated as prowl H2O applied using mixing wheel cultivator relative to control. The conditions noted are these: in vivo, other. The format is organism-based.
For data set [45], the system named is Sesamum indicum. The data set is described as follows: Phytotoxicity against Sesamum indicum (sesame) plant assessed as sesame stand at 1.12 kg/ha formulated as prowl EC applied using mixing wheel cultivator relative to control. The class given is organism-based. The conditions noted are these: in vivo, other.

Turning to `C=C(C)CN(CC)c1c([N+](=O)[O-])cc(C(F)(F)F)cc1[N+](=O)[O-]` [ETHALFLURALIN], the Activity in the data set with Sesamum indicum [1] came out at 4%; in the data set with Sesamum indicum [2], 78%; in the data set on Amaranthus tuberculatus [3] it was 92%; in the data set on Amaranthus tuberculatus [4], 93%; in the data set on Sesamum indicum [5] it was 95%; in the data set on Sesamum indicum [6], 4%. Further, the Activity in the data set with Urochloa platyphylla [7] amounted to 69%; in the data set on Urochloa platyphylla [8], 97%; in the data set on Amaranthus tuberculatus [12], 82%; with Urochloa platyphylla [13], 95%; with Sesamum indicum [14] it was 2%; in the data set on Sesamum indicum [15] it was 52%. The results for the Crop_yield with Sesamum indicum [9], with Sesamum indicum [10] and with Sesamum indicum [11] were 428 kg/ha, 527 kg/ha and 143 kg/ha, respectively.

`CCCN(CCC)c1c([N+](=O)[O-])cc(C(F)(F)F)cc1[N+](=O)[O-]` [TRIFLURALIN]: the Activity worked out at 4% in the data set with Sesamum indicum [1]; 76% with Sesamum indicum [2]; 85% in the data set on Amaranthus tuberculatus [3]; 92% with Amaranthus tuberculatus [4]; 99% in the data set on Sesamum indicum [5]; 0% with Sesamum indicum [6]. The Activity in the data set on Urochloa platyphylla [7] is 86%; in the data set on Urochloa platyphylla [8], 96%; in the data set on Amaranthus tuberculatus [12] it was 90%; in the data set on Urochloa platyphylla [13] it was 91%; with Sesamum indicum [14] it was 2%; with Sesamum indicum [15] it was 67%. Besides, the Crop_yield in the data set on Sesamum indicum [9] worked out at 587 kg/ha; with Sesamum indicum [10], 342 kg/ha; in the data set on Sesamum indicum [11], 406 kg/ha.

For `CCC(CC)Nc1c([N+](=O)[O-])cc(C)c(C)c1[N+](=O)[O-]` [PENDIMETHALIN], the Activity with Amaranthus tuberculatus [16] amounted to 85%; in the data set with Urochloa platyphylla [17], 83%; in the data set with Urochloa platyphylla [18], 71%; with Sesamum indicum [19], 14%; in the data set with Sesamum indicum [20], 90%; in the data set with Amaranthus tuberculatus [21] it was 83%. The Activity in the data set on Sesamum indicum [22] is given as 0%; in the data set with Sesamum indicum [23], 3%; in the data set with Sesamum indicum [24] it was 4%; with Amaranthus tuberculatus [25], 74%; in the data set on Urochloa platyphylla [26] it was 80%; in the data set on Urochloa platyphylla [27], 63%. Further, the Activity stood at 73% in the data set with Urochloa platyphylla [29]; 85% in the data set with Urochloa platyphylla [30]; 84% in the data set with Amaranthus tuberculatus [31]; 90% in the data set on Amaranthus tuberculatus [32]; 16% in the data set with Sesamum indicum [33]; 53% with Sesamum indicum [37]. Also, the Activity in the data set with Sesamum indicum [38] is 3%; in the data set with Sesamum indicum [40] it was 27%; with Amaranthus tuberculatus [42] it was 96%; with Sesamum indicum [43], 80%; with Sesamum indicum [44], 38%; with Sesamum indicum [45], 55%. Besides, the Crop_yield in the data set on Sesamum indicum [28] worked out at 240 kg/ha; with Sesamum indicum [34], 288 kg/ha; in the data set with Sesamum indicum [35] it was 382 kg/ha; with Sesamum indicum [36], 534 kg/ha; in the data set with Sesamum indicum [39] it was 367 kg/ha; in the data set with Sesamum indicum [41], 233 kg/ha.
